Measurements published in PubChem BioAssay (NCI).
Values joined by “and” are separate entries in the source; they are usually repeats but may differ in a detail not shown here. Equal entries are not always repeated.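 Cells were grown in 96-well plates and exposed to each compound for 48 hours at five concentrations; endpoints were interpolated linearly between bracketing concentrations, or set to the highest concentration if not reached. Abbreviation: GI50, concentration required for 50% inhibition of growth. TGI is the concentration that stops growth completely.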

Assays:
Test in all cases: inhibition of tumour cell growth, NCI panel, 48 h
[1] = system: HCC-2998 colon
[2] = system: PC-3 prostate
[3] = system: MDA-MB-231 breast
[4] = system: 786-0 renal
[5] = system: CCRF-CEM leukemia
[6] = system: HS 578T breast
[7] = system: SK-OV-3 ovarian
[8] = system: SNB-75 CNS
[9] = system: HOP-92 NSCLC
[10] = system: CAKI-1 renal

Structure (SMILES)	GI50 [1]	TGI [1]	GI50 [2]	TGI [2]	GI50 [3]	TGI [3]	GI50 [4] [µM]	TGI [4]	GI50 [5]	TGI [5]	GI50 [6] [µM]	TGI [6]	GI50 [7]	TGI [7]	GI50 [8]	TGI [8]	GI50 [9]	TGI [9]	GI50 [10] [µM]	TGI [10]
CC1(C)Cc2c(Br)c(Br)c(Br)c(OCC(O)CN3CCN(c4ccccn4)CC3)c2O1 (centres undefined)	3.68 µM	13.7 µM	5.58 µM	22.5 µM	12.3 µM	28.2 µM	12.5	26.1 µM	3.81 µM	> 100 µM	18.6	39.2 µM	33.2 µM	> 100 µM	16.3 µM	39 µM	4.87 µM	19.8 µM		
COc1cnc2c(c1)C(=O)c1c-2n(CCCN2CCC(O)CC2)c(=O)c2cc(Cl)ccc12	1.59 µM	11.1 µM	1.46 µM	3.56 µM	1.51 µM	3.12 µM	0.28	1.36 µM	0.066 µM	> 100 µM	14.1	37.5 µM	0.341 µM	17.5 µM	10.4 µM	24.6 µM	15.5 µM	34.8 µM	0.0729	15.1 µM
CC1OC(CC(=O)O)CC2=C1C(=O)c1c(O)cccc1C2=O (centres undefined)		1.69 µM		0.817 µM		0.707 µM		0.336 µM		0.0957 µM		0.452 µM		12.7 µM		2.86 µM		0.331 µM		0.334 µM
COc1cc2oc3c(c(=O)c2c(O)c1/C=C/C(C)C)C(C=C(C)C)Oc1cc(O)ccc1-3 (centres undefined)		25.2 µM		29.4 µM		33.2 µM		30.6 µM		30.4 µM		38.2 µM		30.5 µM		29.4 µM		29.3 µM		32.2 µM
O=[N+]([O-])c1cc2no[n+]([O-])c2cc1N1CCCCC1		33.1 µM		5.68 µM		44.3 µM		2.62 µM		> 100 µM		72.5 µM		27.4 µM		9.8 µM		7.04 µM		12.5 µM
Cc1cccc2c3c(sc12)C(c1ccc(F)cc1)C(C#N)=C(N)O3 (centres undefined)	0.311 µM	9.75 µM	0.045 µM	11.3 µM	0.346 µM	8.4 µM	0.297	14.2 µM	0.0439 µM	> 59.7 µM	0.0482	1.95 µM	1.35 µM	27.8 µM	0.0236 µM	0.0936 µM	1.07 µM	8.26 µM	0.0466	12.5 µM
CC1=Nc2c([nH]c(=S)[nH]c2=O)NC(c2c(Cl)cccc2Cl)C1 (centres undefined)		22.9 µM		2.6 µM		1.87 µM		1.76 µM		2.18 µM		17.1 µM		18.1 µM		10.6 µM		17.2 µM		14.8 µM
COCCOCCOCc1n(Cc2ccc3ccccc3n2)c2ccccc2[n+]1Cc1ccc2ccccc2n1	0.912 µM	14.4 µM	0.591 µM	11.7 µM	1.02 µM	9.58 µM	3.74	15.5 µM	1.78 µM	16 µM	2.16	21 µM	1.79 µM	6.6 µM	0.317 µM	4.3 µM	0.217 µM	2.74 µM		
COC(=O)[C@H](Cc1cn(C)cn1)NC(=O)[C@H](C)NC(=O)Nc1cc(C(F)(F)F)cc(C(F)(F)F)c1	> 10 µM	> 10 µM	> 10 µM	> 10 µM	> 10 µM	> 10 µM	> 10	> 10 µM	> 10 µM	> 10 µM	> 10	> 10 µM	> 10 µM	> 10 µM	> 10 µM	> 10 µM	> 10 µM	> 10 µM	> 10	> 10 µM
CCN1C(=NCCO)NS(=O)(=O)c2ccccc21		> 100 µM		> 100 µM		> 100 µM		> 100 µM		> 100 µM		> 100 µM		> 100 µM				> 100 µM		> 100 µM
CCOC(=O)Nc1cc2ccccc2c(N=Nc2ccccc2)c1O		> 100 µM		> 100 µM		> 100 µM		> 100 µM		> 100 µM		> 100 µM		> 100 µM		> 100 µM		> 100 µM		> 100 µM
NC1(Cc2ccc(Cl)cc2)CCN(c2ncnc3[nH]ccc23)CC1	3.89 µM	17 µM	2.99 µM	23.5 µM	6.9 µM	26.9 µM	2.68	17 µM	3.05 µM	24 µM	2.17	14.6 µM	2.35 µM	15.8 µM	0.437 µM	4.37 µM	1.09 µM	7.06 µM	3.94	19.3 µM
COc1ccc2c(c1)-c1nn(CCCN(C)C)c3ccc([N+](=O)[O-])c(c13)N2	0.148 µM and 0.728 µM	1.73 µM and 12.2 µM	0.112 µM and 0.343 µM	2.75 µM and 3.93 µM	0.198 µM and 1.17 µM	2.79 µM and 12 µM		7.68 µM and 12.2 µM	0.0825 µM and 0.624 µM	6.45 µM and 8.72 µM	0.355	3.17 µM and 3.24 µM	0.175 µM and 0.866 µM	1.86 µM and 7.69 µM	0.197 µM and 0.573 µM	1.02 µM and 3.85 µM	0.192 µM and 0.764 µM	1.77 µM and 4.97 µM		4.63 µM and 6.34 µM
CCCCCCNCc1cc(C(C)(C)C)cc(CNCCCCCC)c1O	1.62 µM	2.99 µM	1.53 µM	2.9 µM	1.35 µM	2.7 µM	1.77	3.26 µM	1.69 µM	4.26 µM	1.72	4.03 µM			1.44 µM	2.92 µM	0.549 µM	2.04 µM	1.69	3.08 µM
CN1CCN(c2nc(-c3csc(-c4cccs4)n3)cc3ccccc23)CC1	1.72 µM	3.4 µM	1.98 µM	4.48 µM	1.53 µM	3.13 µM	1.64	3.15 µM	2 µM	4.46 µM	1.7	4.34 µM			1.36 µM	2.91 µM	1.44 µM	3.75 µM	1.61	3.01 µM
